Laboratory results: PubChem BioAssay (NCI)
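Interpolation was linear, between the two tested concentrations surrounding the appropriate level; five concentrations were tested over 48 hours in 96-well plates. GI50 = concentration required for 50% inhibition of growth. Definition used: TGI = concentration required for complete inhibition of growth.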

What was measured:
Test in all cases: NCI anticancer screen, dose series, 48 h
NCI/ADR-RES ovarian = test system: NCI/ADR-RES ovarian
SK-OV-3 ovarian = test system: SK-OV-3 ovarian
HL-60(TB) leukemia = test system: HL-60(TB) leukemia
EKVX NSCLC = test system: EKVX NSCLC
K-562 leukemia = test system: K-562 leukemia
MDA-MB-231 breast = test system: MDA-MB-231 breast
786-0 renal = test system: 786-0 renal
MOLT-4 leukemia = test system: MOLT-4 leukemia
UACC-257 melanoma = test system: UACC-257 melanoma
SR leukemia = test system: SR leukemia
SN12C renal = test system: SN12C renal
CAKI-1 renal = test system: CAKI-1 renal
NCI-H522 lung = test system: NCI-H522 lung
COLO 205 colon = test system: COLO 205 colon
TK-10 renal = test system: TK-10 renal
OVCAR-5 ovarian = test system: OVCAR-5 ovarian
HOP-92 NSCLC = test system: HOP-92 NSCLC
NCI-H23 lung = test system: NCI-H23 lung
HCT-116 colon = test system: HCT-116 colon
SNB-19 CNS = test system: SNB-19 CNS
U251 CNS = test system: U251 CNS
MDA-MB-435 = test system: MDA-MB-435
UO-31 renal = test system: UO-31 renal
OVCAR-8 ovarian = test system: OVCAR-8 ovarian
SW-620 colon = test system: SW-620 colon
HCC-2998 colon = test system: HCC-2998 colon
OVCAR-4 ovarian = test system: OVCAR-4 ovarian
A549 NSCLC = test system: A549 NSCLC
HCT-15 colon = test system: HCT-15 colon
SK-MEL-28 melanoma = test system: SK-MEL-28 melanoma
HS 578T breast = test system: HS 578T breast
T-47D breast = test system: T-47D breast
SNB-75 CNS = test system: SNB-75 CNS
OVCAR-3 ovarian = test system: OVCAR-3 ovarian
ACHN renal = test system: ACHN renal
NCI-H226 lung = test system: NCI-H226 lung
KM12 colon = test system: KM12 colon
SF-539 CNS = test system: SF-539 CNS
MALME-3M melanoma = test system: MALME-3M melanoma
NCI-H460 lung = test system: NCI-H460 lung
RPMI-8226 leukemia = test system: RPMI-8226 leukemia
RXF 393 renal = test system: RXF 393 renal
DU-145 prostate = test system: DU-145 prostate
UACC-62 melanoma = test system: UACC-62 melanoma
MCF7 breast = test system: MCF7 breast
BT-549 breast = test system: BT-549 breast
CCRF-CEM leukemia = test system: CCRF-CEM leukemia
A498 renal = test system: A498 renal
HT29 colon = test system: HT29 colon
SF-268 CNS = test system: SF-268 CNS
SF-295 CNS = test system: SF-295 CNS
LOX IMVI melanoma = test system: LOX IMVI melanoma
M14 melanoma = test system: M14 melanoma
HOP-62 NSCLC = test system: HOP-62 NSCLC
PC-3 prostate = test system: PC-3 prostate
SK-MEL-5 melanoma = test system: SK-MEL-5 melanoma

COc1ccc2c(c1)[n+]([O-])c(C#N)c(NC(=O)c1cccs1)[n+]2[O-]
GI50 (NCI/ADR-RES ovarian): > 100 µM | TGI (NCI/ADR-RES ovarian): > 100 µM | GI50 (SK-OV-3 ovarian): > 100 µM | TGI (SK-OV-3 ovarian): > 100 µM | GI50 (HL-60(TB) leukemia): > 100 µM | TGI (HL-60(TB) leukemia): > 100 µM | GI50 (EKVX NSCLC): > 100 µM | TGI (EKVX NSCLC): > 100 µM | GI50 (K-562 leukemia): > 100 µM | TGI (K-562 leukemia): > 100 µM | GI50 (MDA-MB-231 breast): > 100 µM | TGI (MDA-MB-231 breast): > 100 µM | GI50 (786-0 renal): > 100 µM | TGI (786-0 renal): > 100 µM | GI50 (MOLT-4 leukemia): > 100 µM | TGI (MOLT-4 leukemia): > 100 µM | GI50 (UACC-257 melanoma): > 100 µM | TGI (UACC-257 melanoma): > 100 µM | GI50 (SR leukemia): > 100 µM | TGI (SR leukemia): > 100 µM | GI50 (SN12C renal): > 100 µM | TGI (SN12C renal): > 100 µM | GI50 (CAKI-1 renal): > 100 µM | TGI (CAKI-1 renal): > 100 µM | GI50 (NCI-H522 lung): > 100 µM | TGI (NCI-H522 lung): > 100 µM | GI50 (COLO 205 colon): > 100 µM | TGI (COLO 205 colon): > 100 µM | GI50 (TK-10 renal): > 100 µM | TGI (TK-10 renal): > 100 µM | GI50 (OVCAR-5 ovarian): > 100 µM | TGI (OVCAR-5 ovarian): > 100 µM | GI50 (HOP-92 NSCLC): > 100 µM | TGI (HOP-92 NSCLC): > 100 µM | GI50 (NCI-H23 lung): > 100 µM | TGI (NCI-H23 lung): > 100 µM | GI50 (HCT-116 colon): > 100 µM | TGI (HCT-116 colon): > 100 µM | GI50 (SNB-19 CNS): > 100 µM | TGI (SNB-19 CNS): > 100 µM | GI50 (U251 CNS): > 100 µM | TGI (U251 CNS): > 100 µM | GI50 (MDA-MB-435): > 100 µM | TGI (MDA-MB-435): > 100 µM | GI50 (UO-31 renal): > 100 µM | TGI (UO-31 renal): > 100 µM | GI50 (OVCAR-8 ovarian): > 100 µM | TGI (OVCAR-8 ovarian): > 100 µM | GI50 (SW-620 colon): > 100 µM | TGI (SW-620 colon): > 100 µM | GI50 (HCC-2998 colon): > 100 µM | TGI (HCC-2998 colon): > 100 µM | GI50 (OVCAR-4 ovarian): > 100 µM | TGI (OVCAR-4 ovarian): > 100 µM | GI50 (A549 NSCLC): > 100 µM | TGI (A549 NSCLC): > 100 µM | GI50 (HCT-15 colon): > 100 µM | TGI (HCT-15 colon): > 100 µM | GI50 (SK-MEL-28 melanoma): > 100 µM | TGI (SK-MEL-28 melanoma): > 100 µM | GI50 (HS 578T breast): > 100 µM | TGI (HS 578T breast): > 100 µM | GI50 (T-47D breast): > 100 µM | TGI (T-47D breast): > 100 µM | GI50 (SNB-75 CNS): > 100 µM | TGI (SNB-75 CNS): > 100 µM | GI50 (OVCAR-3 ovarian): > 100 µM | TGI (OVCAR-3 ovarian): > 100 µM | GI50 (ACHN renal): > 100 µM | TGI (ACHN renal): > 100 µM | GI50 (NCI-H226 lung): > 100 µM | TGI (NCI-H226 lung): > 100 µM | GI50 (KM12 colon): > 100 µM | TGI (KM12 colon): > 100 µM | GI50 (SF-539 CNS): > 100 µM | TGI (SF-539 CNS): > 100 µM | GI50 (MALME-3M melanoma): > 100 µM | TGI (MALME-3M melanoma): > 100 µM | GI50 (NCI-H460 lung): > 100 µM | TGI (NCI-H460 lung): > 100 µM | GI50 (RPMI-8226 leukemia): > 100 µM | TGI (RPMI-8226 leukemia): > 100 µM | GI50 (RXF 393 renal): > 100 µM | TGI (RXF 393 renal): > 100 µM | GI50 (DU-145 prostate): > 100 µM | TGI (DU-145 prostate): > 100 µM | GI50 (UACC-62 melanoma): > 100 µM | TGI (UACC-62 melanoma): > 100 µM | GI50 (MCF7 breast): > 100 µM | TGI (MCF7 breast): > 100 µM | GI50 (BT-549 breast): > 100 µM | TGI (BT-549 breast): > 100 µM | GI50 (CCRF-CEM leukemia): > 100 µM | TGI (CCRF-CEM leukemia): > 100 µM | GI50 (A498 renal): > 100 µM | TGI (A498 renal): > 100 µM | GI50 (HT29 colon): > 100 µM | TGI (HT29 colon): > 100 µM | GI50 (SF-268 CNS): > 100 µM | TGI (SF-268 CNS): > 100 µM | GI50 (SF-295 CNS): > 100 µM | TGI (SF-295 CNS): > 100 µM | GI50 (LOX IMVI melanoma): > 100 µM | TGI (LOX IMVI melanoma): > 100 µM | GI50 (M14 melanoma): > 100 µM | TGI (M14 melanoma): > 100 µM | GI50 (HOP-62 NSCLC): > 100 µM | TGI (HOP-62 NSCLC): > 100 µM | GI50 (PC-3 prostate): > 100 µM | TGI (PC-3 prostate): > 100 µM | GI50 (SK-MEL-5 melanoma): > 100 µM | TGI (SK-MEL-5 melanoma): > 100 µM
